Data on 22 compounds can be found in patent US20060035925A1, “SUBSTITUTED 4H-CHROMENES AND ANALOGS AS ACTIVATORS OF CASPASES AND INDUCERS OF APOPTOSIS AND THE USE THEREOF” (Cytovia, Inc., priority 1999, published 2006).

Like-named read-outs stand apart in the source and are kept apart here. Where only a bound is given, the exact number is not on record here.

Test [1] concerns Human breast cancer cell line T-47D. Description: Caspase cascade activation assay (N-(Ac-DEVD)-N'-ethoxycarbonyl-R110 fluorogenic substrate) in T-47D cells. It is filed as cell-based. The conditions noted are these: for Caspase activity (Ratio) T-47D: 24 h incubation with compound, ratio of net RFU (T=3 h) of test compound to control; for EC50: 24 h incubation, sigmoidal dose-response, read-out: Caspase potency EC50 (nM) T-47D. On the procedure:
(§1) Human breast cancer cell lines T-47D and ZR-75-1 were grown according to media component mixtures designated by American Type Culture Collection +10% FCS (Invitrogen Corporation), in a 5% CO2-95% humidity incubator at 37° C. T-47D and ZR-75-1 cells were maintained at a cell density between 30 and 80% confluency at a cell density of 0.1 to 0.6×10^6 cells/ml. Cells were harvested at 600×g and resuspended at 0.65×10^6 cells/mL into appropriate media +10% FCS. An aliquot of 45 μl of cells was added to a well of a 96-well microtiter plate containing 5 μl of a 10% DMSO in RPMI-1640 media solution containing 0.16 to 10 μM of 2-amino-3-cyano-4-(3-bromo-4,5-dimethoxyphenyl)-4H-indolo[7,6-b]pyran (Example 42) or other test compound (0.016 to 1 μM final). An aliquot of 45 μl of cells was added to a well of a 96-well microtiter plate containing 5 μl of a 10% DMSO in RPMI-1640 media solution without test compound as the control sample. The samples were mixed by agitation and then incubated at 37° C. for 24 h in a 5% CO2-95% humidity incubator. After incubation, the samples were removed from the incubator and 50 μl of a solution containing 20 μM of N-(Ac-DEVD)-N′-ethoxycarbonyl-R110 (SEQ ID NO:1) fluorogenic substrate (Cytovia, Inc.; WO99/18856), 20% sucrose (Sigma), 20 mM DTT (Sigma), 200 mM NaCl (Sigma), 40 mM Na PIPES buffer pH 7.2 (Sigma), and 500 μg/ml lysolecithin (Calbiochem) was added. The samples were mixed by agitation and incubated at room temperature. Using a fluorescent plate reader (Model 1420 Wallac Instruments), an initial reading (T=0) was made approximately 1-2 min after addition of the substrate solution, employing excitation at 485 nm and emission at 530 nm, to determine the background fluorescence of the control sample. After the 3 h incubation, the samples were read for fluorescence as above (T=3 h).
(§2) The Relative Fluorescence Unit values (RFU) were used to calculate the sample readings as follows: RFU(T=3h)−Control RFU(T=0)=Net RFU(T=3h)
(§3) The activity of caspase cascade activation was determined by the ratio of the net RFU value for 2-amino-3-cyano-4-(3-bromo-4,5-dimethoxyphenyl)-4H-indolo[7,6-b]pyran or other test compound to that of control samples. The EC50 (nM) was determined by a sigmoidal dose-response calculation (Prism 2.0, GraphPad Software Inc.).

Test [2] relates to Human breast cancer cell line ZR-75-1. Description: Caspase cascade activation assay (N-(Ac-DEVD)-N'-ethoxycarbonyl-R110 fluorogenic substrate) in ZR-75-1 cells. The test is classed as cell-based. The conditions noted are these: ZR-75-1 cells; for EC50: 24 h incubation, sigmoidal dose-response, read-out: Caspase potency EC50 (nM) ZR-75-1; for Caspase activity (Ratio) ZR-75-1: 24 h incubation with compound, ratio of net RFU (T=3 h) of test compound to control. How it is done:
as §1, §2, §3

As usually defined, the EC50 is the concentration giving half of the maximal effect. Regarding `COc1ccc2c(c1)OC(N)=C(C#N)C2c1cncc(C)c1` (centres unmarked) [Example 30, 2-Amino-3-cyano-7-methoxy-4-(5-methyl-3-pyridyl)-4H-chromene], the “Caspase activity (Ratio) T-47D” value in test [1] turned out to be 7.5. Further, the 50% effective concentration (EC50) in test [1] (Homo sapiens, T47D, 24 h) amounted to 24 nM; in test [2] (Homo sapiens, ZR-75-1, 24 h), 14 nM. Moreover, the “Caspase activity (Ratio) ZR-75-1” value in test [2] was determined as 13.2.
Taken in the same sequence, the figures for `COc1cc(OC)cc(C2C(C#N)=C(N)Oc3cc(OC)ccc32)c1` (centres unmarked) [Example 12, 2-Amino-3-cyano-7-methoxy-4-(3,5-dimethoxyphenyl)-4H-chromene] were 6.1, 14 nM, 9 nM and 6.7.
Taken in the same sequence, the figures for `Cc1cncc(C2C3=CC=C4N=CC=C4C3OC(N)=C2C#N)n1` (centres unmarked) [Example 58, 2-Amino-3-cyano-4-(6-methyl-pyrazin-2-yl)-4H-indolo[4,5-b]pyran] were 4.1, 2900 nM, 1630 nM and 7.0.
Taken in the same sequence, the figures for `COc1cc(OC)cc(C2C3=CC=C4C=CN=C4C3OC(N)=C2C#N)c1` (centres unmarked) [Example 52, 2-Amino-3-cyano-4-(3,5-dimethoxyphenyl)-4H-indolo[7,6-b]pyran] were 11.8, 26 nM, 22.7 nM and 9.9.
`COc1cc(C2(C)C(C#N)=C(N)Oc3cc(N(C)C)ccc32)cc(Br)c1OC` (centres unmarked) [Example 68A, 2-Amino-3-cyano-7-dimethylamino-4-(3-bromo-4,5-dimethoxyphenyl)-4-methylchromene]: the “Caspase activity (Ratio) T-47D” value in test [1] came to 6.8. For the same compound, the EC50 in test [1] (Homo sapiens, T47D, 24 h) turned out to be 1980 nM; in test [2] (Homo sapiens, ZR-75-1, 24 h), 1470 nM. In addition, the “Caspase activity (Ratio) ZR-75-1” value in test [2] is 6.5.
On the same counts, the results for `COc1ccc2c(c1)OC(N)=C(C#N)C2c1cccc(F)c1` (centres unmarked) [Example 2N, 2-Amino-3-cyano-7-methoxy-4-(3-fluorophenyl)-4H-chromene] are 4.2, 57 nM, 47 nM and 6.8.
Taken in the same sequence, the figures for `COc1cccc(C2C3=CC=C4C=CN=C4C3OC(N)=C2C#N)c1` (centres unmarked) [Example 43, 2-Amino-3-cyano-4-(3-methoxyphenyl)-4H-indolo[7,6-b]pyran] were 6.5, 143 nM, 81.9 nM and 5.9.
On the same counts, the results for `CCNc1ccc2c(c1)OC(N)=C(C#N)C2c1cccc([N+](=O)[O-])c1` (centres unmarked) [Example 9, 2-Amino-3-cyano-7-ethylamino-4-(3-nitrophenyl)-4H-chromene] are 7.6, 116 nM, 50 nM and 12.8.
For the compound `COc1ccc2c(c1)OC(N)=C(C#N)C2C1CC=CCC1` (centres unmarked) [Example 28, 2-Amino-3-cyano-7-methoxy-4-(1,2,3,6-tetrahydrophenyl)-4H-chromene], the “Caspase activity (Ratio) T-47D” value in test [1] was found to be 3.4. Besides, the half-maximal effective concentration (EC50) worked out at 158 nM in test [1] (Homo sapiens, T47D, 24 h) and 154 nM in test [2] (Homo sapiens, ZR-75-1, 24 h). Also, the “Caspase activity (Ratio) ZR-75-1” value in test [2] worked out at 5.2.
On the same counts, the results for `N#CC1=C(N)OC2C3=CC=NC3=CC=C2C1c1cc(F)cc(F)c1` (centres unmarked) [Example 2K, 2-Amino-3-cyano-4-(3,5-difluorophenyl)-4H-indolo[4,5-b]pyran] are 5.6, 37 nM, 16 nM and 6.9.
Taken in the same sequence, the figures for `N#CC1=C(N)OC2C3=CC=NC3=CC=C2C1c1cccc(Cl)c1` (centres unmarked) [Example 2G, 2-Amino-3-cyano-4-(3-chlorophenyl)-4H-indolo[4,5-b]pyran] were 5.6, 56 nM, 25 nM and 4.5.
Turning to “2-Amino-4-(3-bromo-4,5-dimethoxyphenyl)-3-cyano-9-methyl-4H-imidazo[4,5-b]chromene [Example 75]”, in test [1], the “Caspase activity (Ratio) T-47D” value was determined as 6.3 and the EC50 stood at 345 nM. Moreover, in test [2], the “Caspase activity (Ratio) ZR-75-1” value stood at 3.4 and the EC50 is 146 nM.
Taken in the same sequence, the figures for “2-Amino-3-cyano-7-methoxy-4-(2,4-dimethoxypyrimidinyl)-4H-chromene [Example 27]” were under 2, over 10000 nM, under 2 and over 10000 nM.
In the case of `CCNc1ccc2c(c1)OC(N)=C(C#N)C2c1cncc(C)c1` (centres unmarked) [Example 31, 2-Amino-3-cyano-7-ethylamino-4-(5-methyl-3-pyridyl)-4H-chromene], the “Caspase activity (Ratio) T-47D” value in test [1] worked out at 7.9. Moreover, the 50% effective concentration (EC50) in test [1] (Homo sapiens, T47D, 24 h) was determined as 27 nM; in test [2] (Homo sapiens, ZR-75-1, 24 h) it was 12 nM. Besides, in test [2], the “Caspase activity (Ratio) ZR-75-1” value was found to be 11.0.
Taken in the same sequence, the figures for `COc1cc(C2C(C#N)=C(N)Oc3cc(Br)ccc32)cc(Br)c1OC` (centres unmarked) [Example 62, 2-Amino-7-bromo-4-(3-bromo-4,5-dimethoxy-phenyl)-3-cyano-4H-chromene] were 6.6, 144 nM, 75.3 nM and 6.0.
On the same counts, the results for `COc1ccc2c(c1)OC(N)=C(C#N)C2c1cc(OC)c(OC)c(OC)c1` (centres unmarked) [Example 3, 2-Amino-3-cyano-7-methoxy-4-(3,4,5-trimethoxyphenyl)-4H-chromene] are 8.4, 29 nM, 16 nM and 4.5.
For the compound `N#CC1=C(N)Oc2cc(N)ccc2C1c1cccc(F)c1` (centres unmarked) [Example 2M, 2-Amino-3-cyano-7-amino-4-(3-fluorophenyl)-4H-chromene], the “Caspase activity (Ratio) T-47D” value in test [1] is given as 5.8. Besides, the EC50 in test [1] (Homo sapiens, T47D, 24 h) came to 1390 nM; in test [2] (Homo sapiens, ZR-75-1, 24 h), 786 nM. Further, the “Caspase activity (Ratio) ZR-75-1” value in test [2] amounted to 6.9.
In the case of `COc1cccc(C2C(C#N)=C(N)Oc3c2ccc2nccnc32)c1` (centres unmarked) [Example 78, 2-Amino-3-cyano-4-(3-methoxyphenyl)-4H-pyrazino[2,3-h]chromene], in test [1], the “Caspase activity (Ratio) T-47D” value is 1.8 and the concentration for a half-maximal effect (EC50) is over 1000 nM. In test [2], the “Caspase activity (Ratio) ZR-75-1” value came to 3.6 and the concentration giving a half-maximal response (EC50) is 537 nM.
Take `COc1cc(C2C(C#N)=C(N)Oc3cc(O)ccc32)cc(Br)c1OC` (centres unmarked) [Example 1, 2-Amino-3-cyano-7-hydroxy-4-(3-bromo-4,5-dimethoxyphenyl)-4H-chromene]: the “Caspase activity (Ratio) T-47D” value in test [1] stood at 5.1. The EC50 in test [1] (Homo sapiens, T47D, 24 h) is 153 nM; in test [2] (Homo sapiens, ZR-75-1, 24 h), 94 nM. In test [2], the “Caspase activity (Ratio) ZR-75-1” value is recorded as 10.8.
Take `COc1cc(C2C(C#N)=C(N)Oc3cc(Cl)ccc32)cc(Br)c1OC` (centres unmarked) [Example 63, 2-Amino-4-(3-bromo-4,5-dimethoxy-phenyl)-7-chloro-3-cyano-4H-chromene]: in test [1], the “Caspase activity (Ratio) T-47D” value amounted to 9.1. The EC50 in test [1] (Homo sapiens, T47D, 24 h) was determined as 147 nM; in test [2] (Homo sapiens, ZR-75-1, 24 h), 114 nM. Further, the “Caspase activity (Ratio) ZR-75-1” value in test [2] is 10.1.
`COC(=O)C1=C(N)Oc2c(ccc3[nH]ccc23)C1c1cc(Br)c(OC)c(OC)c1` (centres unmarked) [Example 73]: in test [1], the “Caspase activity (Ratio) T-47D” value came to 7.5 and the concentration for a half-maximal effect (EC50) worked out at 29.4 nM. In test [2], the “Caspase activity (Ratio) ZR-75-1” value came out at 9.0 and the EC50 was determined as 26.7 nM.
For the compound `COc1cc(C2C(C#N)=C(N)Oc3c2ccc(O)c3N)cc(Br)c1OC` (centres unmarked) [Example 2I, 2-Amino-3-cyano-7-hydroxy-8-amino-4-(3-bromo-4,5-dimethoxyphenyl)-4H-chromene], the “Caspase activity (Ratio) T-47D” value in test [1] is listed as 6.2. For the same compound, the EC50 in test [1] (Homo sapiens, T47D, 24 h) came to 50.4 nM.
